Source: publication PMC11336141
Entries after “also recorded” stand apart in the source; their conditions may differ. Bridge positions count the residues as written; N and C are the ends. Square brackets hold non-standard residues; d marks the D form. Peptide text beside a SMILES is read from it.

What was measured:
perfused rat pancreas [1] = assay: Rat pancreas perfusion, insulin output; set-up: species or system rat (Wistar); conditions: for effect on insulin secretion: 0.1 nM, 1 nM and 10 nM, […] glucose, n = 5 rats; for Insulin output: Mean
Description: (§1) Non-fasted rats were anesthetized by a subcutaneous injection of a balanced mix of hypnorm and midazolam (0.3 mL/100 g body weight). Rats were placed on a heated operating table (37 °C) and the abdomen were opened. Blood vessels were tied off before removing the large and small intestines, the stomach, and the spleen. Then, the kidneys were ligated. […] The perfusion buffer was a modified Krebs-Ringer bicarbonate buffer with 5% (w/v) dextran T-70 (Pharmacosmos, Holbaek, Denmark), 0.1% (w/v) BSA (fraction V), 3.5 mM glucose and 3 mM vamin (Fresenius Kabi, Copenhagen, Denmark), pH adjusted to 7.4. […] Once perfusion of the pancreas was established, a catheter was inserted in the vena portae to collect the venous effluent and the rat was sacrificed by perforation of the diaphragm. After a 30-minute equilibration period, samples were collected every minute for the duration of the protocol. […] 10 mM L-Arginine was used as a positive control. Collected samples were immediately transferred on ice and stored at −20 °C until hormone analysis. Glucagon, insulin, and somatostatin concentrations in venous effluents were quantified by use of validated in-house radioimmunoassays (RIA) as previously described[36] (see below). Statistical analysis were performed where appropriate using one-way analysis of variance (ANOVA) with Dunnett’s post-test. Statistical significance was taken as p < 0.05.
(§2) Glucagon concentration in perfusion samples were measured by a validated in-house RIAs using the 4305 antibody, which reacts with the C-terminal epitope of glucagon[36] and no other cleavage products of pro-glucagon. Insulin concentrations were measured with the 2006 antibody, which measures all isoforms of rat insulin. […] Assay sensitivity was <1 pmol/L ( < 5 pmol/L for insulin detection), allowing reliable measurements of increments of at least 25 fmol/min.
(§3) Data analysis were performed in GraphPad Prism (v.9.4.1). Statistical analysis were performed using two-way repeated measure analysis of variance (ANOVA) with Šidák test for isolated islets glucagon secretion and one-way repeated measure ANOVA with Dunnett's test for rat pancreas perfusion experiments. Statistical significance was taken as p < 0.05.

Dr-sstr2a = assay: PRESTO-Tango β-arrestin recruitment assay, Dr-sstr2a; type: cell-based, zebrafish (Danio rerio); conditions: HTLA cells, listed as Consomatin pG1
Excerpt: (§4) 3xHA-tagged human SSTR2 construct was obtained from cDNA.org (cDNA resource center, Bloomsburg PA, US). […] Kirill Martemyanov (University of Florida, US). Tango constructs for human SSTR1-5 were kind gifts from Prof. Bryan Roth (University of North Carolina, Chapel Hill, US) (Addgene kit # 1000000068). Tango constructs for fish Dr-sstr2a (sequence accession number: XP_005170178.1) and Dr-sstr2b (sequence accession number: XP_017210358.1) were custom-synthesized by Twist Biosciences using the Tango construct template as described in Kroeze et al., 2015[28]. 3xHA-tagged Dr-sstr2a and 3xHA tagged Dr-sstr2b constructs were inserted into pcDNA3.1 backbone. All DNA constructs were sequenced and confirmed prior to use.
(§5) The assay was done as described in ref. [12].

Dr-sstr2b = assay: PRESTO-Tango β-arrestin recruitment assay, Dr-sstr2b; type: cell-based, zebrafish (Danio rerio); conditions: for pEC50: Dr-sstr2b, Fig. S15D
Excerpt: as §4, §5

[2] = tested on: Dr-sstr2a with the ECL2 region of the hSSTR2; assay: Activation of hybrid receptor (ECL2 of hSSTR2 inserted into Dr-sstr2a); type: cell-based; conditions: preliminary results, peer review file
Description: To further address this, we have begun to perform mutagenesis studies on the Dr-sstr2a.

human SSTR2 (GoB) = target: T1, human SSTR2 (GoB) (Homo sapiens, UniProt P30874); assay: G protein activation (BRET dissociation) assay, GoB at hSSTR2; type: cell-based;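 for Emax ± S.E.M.: percent of the maximal response to the reference somatostatin agonist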
T1 construct: host or cells: HEK293T cells
Description: (§6) HEK293T cells were seeded onto 6-well plates at a density of 750,000 cells/well. […] 16 to 24 hours post-transfection, HEK293T cells were seeded onto white 96 well plate (PerkinElmer) coated with poly-L-lysine (PLL) at a density of 40,000 cells/well and were allowed to grow overnight. On the day of assay, cells were washed once with phosphate-based saline (PBS) and 80 µL of assay buffer which composed of PBS with 0.5 mM MgCl2 and 0.1% glucose, pH 7.4, were added onto each well. 10 µL of Nluc luciferase substrate furimazine (Promega) were added onto each well and incubated for 3 minutes.
(§7) The net BRET ratio was determined by subtracting the BRET ratio of drugs with the BRET ratio of vehicle control. Net BRET ratio over time was then plotted using GraphPad Prism (v.9.4.1), and the area-under-curve of net BRET ratio over time course for each ligand concentration tested were then determined and plotted against log(concentration) of drugs tested. […] Concentration response curves were fitted with a 4-parameter logistic Eq. (1) using GraphPad Prism (v.9.4.1):1 Y=Emin+(Emax−Emin)/1+10^logEC50−X×Hillslope

human SSTR2 (GoA) = human SSTR2 (GoA) (Homo sapiens, UniProt P30874); assay: G protein activation (BRET dissociation) assay, GoA at hSSTR2;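 for Emax: percent of the maximal response to the reference somatostatin agonist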
Description: as §6, §7

Dr-sstr2a (GoA) = assay: G protein dissociation assay, GoA at Dr-sstr2a; type: cell-based, zebrafish (Danio rerio); conditions: HEK293T cells
Excerpt: as §4
Error bars represent means ± S.E.M. of n = 3 in technical duplicates.

[3] = tested on: human SSTR2 (Gi1-3, GoA, GoB); assay: G protein activation (BRET dissociation) assay, panel of Gi/o proteins at hSSTR2; type: cell-based; conditions: hSSTR2, HEK293T cells
Description: as §6, §7

human SSTR2 = human SSTR2 (Homo sapiens, UniProt P30874); assay: PRESTO-Tango β-arrestin recruitment assay, hSSTR2
Description: HTLA cells were given by Prof. Bryan Roth (University of North Carolina, Chapel Hill, US) and were maintained in Dulbecco’s modified Eagle’s medium (DMEM) supplemented with 10% Fetal Bovine Serum (FBS) (Biowest) and 100 U/mL penicillin and 100 µg/mL streptomycin at 37 °C in a humidified incubator supplemented with 5% CO2. Constant selective pressure for tTA-dependent luciferase reporter and a β-arrestin 2 tobacco etch virus protease fusion gene were maintained with the addition of 100 µg/mL hygromycin B and 2 µg/ml puromycin (Tango growth medium).
Briefly, HTLA cells (1 million cells/well) were seeded in 6-well plates in Tango growth medium, and incubated overnight. On day 2, medium was changed to Tango growth medium without hygromycin B and puromycin. Cells were then transfected using Polyfect (Qiagen) according to manufacturer’s protocol. On day 3, 15,000 cells in 40 µL DMEM supplemented with 1% dialyzed FBS (Tango assay medium) per well were seeded in poly-D-lysine-coated white clear-bottom 384 well plates (Corning) and incubated overnight. On day 4, the Tango assay medium was changed and 10 µL of each of the peptide was added at 5x final concentration. The peptides were resuspended in HBSS with 20 mM HEPES, 1 mM of CaCl2, 1 mM of MgCl2, pH adjusted to 7.4 with 1 M NaOH (Tango assay buffer), which was supplemented with 0.1% BSA (Tango ligand buffer). After overnight incubation, on day 5, the medium and the compounds were removed from the cells and 20 µL of 1:20 dilution of BrightGlo (Promega) in Tango assay buffer supplemented with 0.01% pluronic F68 was added to the cells. Plates were incubated for 20 minutes in the dark at room temperature. Luminescence was measured on a Molecular Devices SpectraMax iD5 (Molecular Devices) with each well integrated for 1 second.

perfused rat pancreas [4] = assay: Rat pancreas perfusion, somatostatin output; set-up: species or system rat (Wistar); conditions: 0.1 nM, 1 nM and 10 nM, […] glucose, n = 10 rats
Description: Non-fasted rats were anesthetized by a subcutaneous injection of a balanced mix of hypnorm and midazolam (0.3 mL/100 g body weight). Rats were placed on a heated operating table (37 °C) and the abdomen were opened. Blood vessels were tied off before removing the large and small intestines, the stomach, and the spleen. Then, the kidneys were ligated. […] The perfusion buffer was a modified Krebs-Ringer bicarbonate buffer with 5% (w/v) dextran T-70 (Pharmacosmos, Holbaek, Denmark), 0.1% (w/v) BSA (fraction V), 3.5 mM glucose and 3 mM vamin (Fresenius Kabi, Copenhagen, Denmark), pH adjusted to 7.4. […] Once perfusion of the pancreas was established, a catheter was inserted in the vena portae to collect the venous effluent and the rat was sacrificed by perforation of the diaphragm. After a 30-minute equilibration period, samples were collected every minute for the duration of the protocol. […] Glucagon, insulin, and somatostatin concentrations in venous effluents were quantified by use of validated in-house radioimmunoassays (RIA) as previously described[36] […]
Glucagon concentration in perfusion samples were measured by a validated in-house RIAs using the 4305 antibody, which reacts with the C-terminal epitope of glucagon[36] and no other cleavage products of pro-glucagon. Insulin concentrations were measured with the 2006 antibody, which measures all isoforms of rat insulin. […]

human SSTR2 (Gi1) = target: T2, human SSTR2 (Gi1) (Homo sapiens, UniProt P30874); assay: G protein activation (BRET dissociation) assay, Gi1 at hSSTR2; type: cell-based;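 for Emax ± S.E.M.: percent of the maximal response to the reference somatostatin agonist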
T2 construct: host or cells: HEK293T cells
Description: as §6, §7

human SSTR2 (Gi2) = target: T3, human SSTR2 (Gi2) (Homo sapiens, UniProt P30874); assay: G protein activation (BRET dissociation) assay, Gi2 at hSSTR2; type: cell-based;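 for Emax ± S.E.M.: percent of the maximal response to the reference somatostatin agonist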
T3 construct: host or cells: HEK293T cells
Description: as §6, §7

perfused rat pancreas [5] = assay: Rat pancreas perfusion, glucagon output; set-up: species or system rat (Wistar)
Description: as §1, §2, §3

Chain of human SSTR2 (P30874 whole entry, the tested form may be a part): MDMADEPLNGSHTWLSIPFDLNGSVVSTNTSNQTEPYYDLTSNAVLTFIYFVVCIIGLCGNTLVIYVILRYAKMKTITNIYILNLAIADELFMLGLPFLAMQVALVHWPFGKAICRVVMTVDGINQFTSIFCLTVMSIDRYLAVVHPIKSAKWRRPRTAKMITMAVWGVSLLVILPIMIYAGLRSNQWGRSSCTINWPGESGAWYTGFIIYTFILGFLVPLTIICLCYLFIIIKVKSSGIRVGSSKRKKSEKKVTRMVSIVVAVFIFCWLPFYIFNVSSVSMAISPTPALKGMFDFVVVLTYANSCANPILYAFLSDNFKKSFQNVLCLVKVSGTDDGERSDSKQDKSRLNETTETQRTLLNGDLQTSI
T3 sequence (P30874 whole entry): as the sequence (P30874 whole entry, the tested form may be a part) above
T1 sequence (P30874 whole entry): as the sequence (P30874 whole entry, the tested form may be a part) above
T2 sequence (P30874 whole entry): as the sequence (P30874 whole entry, the tested form may be a part) above
Chain of human SSTR2 (GoA) (P30874 whole entry): as the sequence (P30874 whole entry, the tested form may be a part) above

SMILES: CC(C)C[C@H](N)C(=O)N[C@@H](Cc1ccccc1)C(=O)N[C@H]1CSSC[C@@H](C(=O)N[C@@H](Cc2c[nH]c3ccccc23)C(=O)O)NC(=O)[C@H](CO)NC(=O)[C@H](CCCCN)NC(=O)[C@@H](Cc2c[nH]c3ccccc23)NC(=O)[C@H](Cc2ccccc2)NC1=O [pG1] (H-LFCF[dW]KSCW-OH; disulfide 3-8)
- effect on insulin secretion (perfused rat pancreas [1]): did not affect insulin and somatostatin output at low glucose (3.5 mM)
- effect on insulin secretion (perfused rat pancreas [1]; listed as Consomatin pG1): no effect on somatostatin or insulin secretion in 3.5 mM glucose
- Insulin output (perfused rat pancreas [1]; 0.1nM, replicate 1): 35.5
- Insulin output (perfused rat pancreas [1]; 0.1nM, replicate 2): 10
- Insulin output (perfused rat pancreas [1]; 0.1nM, replicate 3): 25.5
- Insulin output (perfused rat pancreas [1]; 0.1nM, replicate 4): 51
- Insulin output (perfused rat pancreas [1]; 0.1nM, replicate 5): 14
- Insulin output (perfused rat pancreas [1]; 1nM, replicate 1): 15.5556
- Insulin output (perfused rat pancreas [1]; 1nM, replicate 2): 29
- Insulin output (perfused rat pancreas [1]; 1nM, replicate 3): 40
- Insulin output (perfused rat pancreas [1]; 1nM, replicate 4): 74.5
- Insulin output (perfused rat pancreas [1]; 1nM, replicate 5): 0
- Insulin output (perfused rat pancreas [1]; 10nM, replicate 1): 25
- Insulin output (perfused rat pancreas [1]; 10nM, replicate 2): 0
- Insulin output (perfused rat pancreas [1]; 10nM, replicate 3): 15
- Insulin output (perfused rat pancreas [1]; 10nM, replicate 4): 35
- Insulin output (perfused rat pancreas [1]; 10nM, replicate 5): 11.5
- activation of Dr-sstr2a in words (Dr-sstr2a): very low potency; also recorded: activates the zebrafish Dr-sstr2b (n = 3) but not Dr-sstr2a
- pEC50 (Dr-sstr2b; replicate 1): 7.529
- pEC50 (Dr-sstr2b; replicate 2): 7.491
- pEC50 (Dr-sstr2b; replicate 3): 7.611
- pEC50 (Dr-sstr2b; replicate 4): 7.82
- activation of Dr-sstr2b in words (Dr-sstr2b; PRESTO-Tango, HTLA cells): activates the zebrafish Dr-sstr2b (n = 3) but not Dr-sstr2a
- Hill Slope (Dr-sstr2b; Table S4): 0.90 ± 0.13
- Span ± S.E.M. (Dr-sstr2b; Table S4): 82.46 ± 4.04
- EC50 (Dr-sstr2b; Table S4, HTLA cells): 25.3 nM
- Emax ± S.E.M. (Dr-sstr2b; Table S4, relative to SS-14): 83.12 ± 3.13
- activation of hybrid receptor in words [2]: activation of this hybrid receptor
- Emax (human SSTR2 (GoB)): 76.7 ± 3.62%
- Hill Slope (human SSTR2 (GoB); Table S2, GαoB): 1.46 ± 0.41
- Span ± S.E.M. (human SSTR2 (GoB); Table S2, GαoB): 76.77 ± 4.97
- EC50 (human SSTR2 (GoB); Table S2, GαoB, HEK293T, means ± S.E.M.): 8.32 nM
- EC50 (human SSTR2 (GoA)): 5.13 nM
- Hill Slope (human SSTR2 (GoA); Table S2, GαoA): 1.04 ± 0.25
- Span ± S.E.M. (human SSTR2 (GoA); Table S2, GαoA): 97.45 ± 6.80
- GoA activation/dissociation in words (human SSTR2 (GoA); hSSTR2, HEK293T cells): most potent at dissociating GoA protein among all Gi/o proteins tested
- Emax (human SSTR2 (GoA); read-out: Emax ± S.E.M.): 97.9 ± 4.11%
- GoA dissociation at Dr-sstr2a in words (Dr-sstr2a (GoA)): only induced GoA dissociation at the Dr-sstr2b but not the Dr-sstr2a
- Gi/o protein dissociation in words [3]: weaker potencies at dissociating all Gi/o proteins compared to SS-14
- Gi/o protein dissociation in words ([3]; listed as Consomatin pG1): weaker potencies in dissociating different Gαi/o protein compared to SS-14 and octreotide
- EC50 (human SSTR2): 3.55 nM
- activation of hSSTR2 in words (human SSTR2; PRESTO-Tango, HTLA cells): potent and selective SSTR2 full agonist
- Hill Slope (human SSTR2; Table S1): 0.50 ± 0.06
- Span ± S.E.M. (human SSTR2; Table S1): 106.03 ± 6.98
- Emax (human SSTR2; read-out: Emax ± S.E.M., Table S1, % of maximal response relative to SS-14): 105 ± 3.01%
- effect on somatostatin secretion (perfused rat pancreas [4]): did not affect insulin and somatostatin output at low glucose (3.5 mM)
- effect on somatostatin secretion (perfused rat pancreas [4]; listed as Consomatin pG1): no effect on somatostatin or insulin secretion in 3.5 mM glucose
- Emax (human SSTR2 (Gi1)): 95.6 ± 8.52%
- Hill Slope (human SSTR2 (Gi1); Table S2, Gαi1): 0.81 ± 0.28
- Span ± S.E.M. (human SSTR2 (Gi1); Table S2, Gαi1): 87.89 ± 11.1
- EC50 (human SSTR2 (Gi1); Table S2, Gαi1, HEK293T, means ± S.E.M.): 6.46 nM
- Emax (human SSTR2 (Gi2)): 91 ± 4.6%
- Hill Slope (human SSTR2 (Gi2); Table S2, Gαi2): 1.11 ± 0.22
- Span ± S.E.M. (human SSTR2 (Gi2); Table S2, Gαi2): 83.42 ± 5.67
- EC50 (human SSTR2 (Gi2); Table S2, Gαi2, HEK293T, means ± S.E.M.): 1.35 nM
- suppression of glucagon secretion (perfused rat pancreas [5]; 0.1 nM, within 5 minute of application, […] glucose, n = 10 rats): 24%
- further suppression of glucagon secretion (perfused rat pancreas [5]; 1 nM, subsequent application, […] glucose, n = 10 rats): 45%
- glucagon level in words (perfused rat pancreas [5]; 10 nM, […] glucose): drastically reduced the glucagon level close to null
- recovery of glucagon level after washout (perfused rat pancreas [5]; after 0.1 nM, 15-minute washout, baseline 754.9 fmol/min): failed to return to the average baseline level
